Reference: patent US9994564B2, “Myosin II ATPase inhibitor compounds” (priority 2014, dated 2018)
“And” between values parts separate entries of the source, which are not always exact repeats. Identical values can stand only once.

What was measured:
[1] = tested on: rat bladder smooth muscle strip (detrusor); test: Relaxation of rat bladder strips pre-contracted with 60 mM KCl or 1 μM carbachol (organ bath); format: cell-based; conditions: for bladder relaxation in vitro, enantiomer compared with racemic blebbistatin mixture: in vitro studies; for relaxation of KCl and CC evoked detrusor contraction: 60 mM KCl or 1 μM CC pre-contraction, maximal pre-contraction = 100%
Experimental: (§1) Experimental materials and methods: All chemical were from Sigma (St. Louis, USA) except (±) blebbistatin (racemic blebbistatin) was from Tocris (Ellisville, Mo.). […] Rat bladder body and aorta were obtained from 17 (275-300 gram) adult male Sprague-Dawley (SD) rats (Charles River; Raleigh, N.C.). All animal studies were approved by the Animal Institute Committee of the Albert Einstein College of Medicine.
In vitro organ bath studies: The in vitro contractility studies were performed as previously described by Zhang X, Kuppam D, Aydin M, Melman A, DiSanto M. “In vitro and in vivo relaxation of corpus cavernosum smooth muscle by the selective myosin II inhibitor, blebbistatin.” J Sex Med 2009; 6:2661-71, Sandhu K S, Chua R G, Zhang X, et al. “Regional heterogeneity in expression of the sphingosine-1-phosphate pathway in the female rat lower urinary tract”; Am J Obstet Gynecol 2009; 200:576-7; Chua R G, Calenda G, Zhang X, et al. “Testosterone regulates erectile function and Vcsal expression in the corpora of rats”; Mol Cell Endocrinol 2009; 303:67-73. Bladder strips were mounted longitudinally and aortic rings horizontally in a 5 ml organ bath—Multi-Myograph Model 810MS (bladder) or Model 610M (aorta) (Danish Myo Technology; Aarhus, Denmark). The myograph was connected in line to a PowerLab 4/30 Data Acquisition System (ADInstruments; Colorado Springs, Colo.) and in turn to a Dual-Core processor Pentium computer for real-time monitoring of physiological force. The smooth muscle strips were equilibrated at least 1 hour in Krebs-Henseleit (Krebs) buffer at 37° C. with continuous bubbling of 95% O2 and 5% CO2 and buffer was changed every 15 minutes (min). Strips were continuously adjusted to resting tension (0.5 g for rat bladder and 1 g for human bladder (Yamamoto M, Harm S C, Grasser W A, Thiede M A. “Parathyroid hormone-related protein in the rat urinary bladder: a smooth muscle relaxant produced locally in response to mechanical stretch.” Proc Natl Acad Sci USA 1992; 89:5326-30. After equilibration, rat detrusor was contracted with 60 mM KCl and the force induced by cumulative concentrations (10-5-10-1 M) of carbachol (CC) or electrical field stimulation (EFS) at varying frequencies of 2-32 Hz, pulse duration 1.5 ms, train 5 s, and 80 V, was normalized to that KCl response. Next, all strips were pre-contracted with 60 mM KCl, or 1 μM CC (rat bladder), or 20 nM endothelin-1 (ET-1) (human bladder) and allowed to reach stable tension and then the relaxant effects of increasing doses of blebbistatin were evaluated. For rat detrusor, after pre-incubation with blebbistatin (10 μM) for 30 min, its inhibitory effect on CC (1 μM) induced contractility or aforementioned EFS mediated contractility was also tested. Additionally, the influence of blebbistatin (10 μM) on rat detrusor spontaneous activity and basal tone was evaluated.

[2] = tested on: Non-muscle Myosin ATPases; conditions: single concentration of 100 micromolar; Toth table IV; cited from earlier work
[3] = biological target: Porcine Cardiac Muscle Myosin II ATPase (Sus scrofa, UniProt P79293); conditions: single concentration of 100 micromolar; Toth table IV; cited from earlier work
[4] = biological target: Smooth Muscle Myosin II ATPase (turkey smooth muscle); conditions: in vitro, read-out: IC50, inhibition of Smooth Muscle Myosin II ATPase; cited from earlier work
bladder of awake rat = test: Awake rat cystometry (urodynamics) after intravesical blebbistatin; format: in vivo
Experimental: Cystometric evaluation of bladder function was performed as previously described on a separate set of 5 rats. See Malmgren A, Andersson P O, Uvelius B. “Bladder function in rats with short- and long-term diabetes; effects of age and muscarinic blockade” J Urol 1989; 142:1608-14; Melman A, Zotova E, Kim M, et al. “Longitudinal studies of time-dependent changes in both bladder and erectile function after streptozotocin-induced diabetes in Fischer 344 male rats” BJU Int 2009, 104:1292-300; Suadicani S O, Urban-Maldonado M, Tar M T, Melman A, Spray D C. “Effects of ageing and streptozotocin-induced diabetes on connexin43 and P2 purinoceptor expression in the rat corpora cavernosa and urinary bladder” BJU Int 2009; 103:1686-93. Under anesthesia, a PE 50 catheter with a cuff was surgically inserted into the bladder dome and exited through an orifice made in the back of the animal. […] The bladder catheter was connected to a 2-way valve that is, in turn connected to a pressure transducer as well as an infusion pump (model PHD 2000, Harvard Instruments; MA, USA). Rat bladder was infused with vehicle for 30 min and then cystometry was performed. After that, the same rat was treated with 250 nmols blebbistatin for the same period and cystometry was similarly repeated. One rat had bladder over-activity possibly due to post-surgical infection and thus blebbistatin was kept in the bladder for only about 5 min. The rate of infusion of room temperature saline was set at 10 ml/h. Bladder activity was continuously recorded after the first micturition, and subsequently at least 2 h of data were recorded from each rat. Statistical analysis: Results are expressed as mean±SEM for n experiments. Statistical analysis was performed using either the Student's t-test (when two sample treatments were being compared) or using ANOVA when multiple means were compared. p<0.05 was considered significant.
Bladder function was evaluated using the following urodynamic criteria: bladder capacity: (BC=volume of infused saline discharged at micturition); micturition volume (MV=the volume of urine discharged during micturition); residual volume (RV=volume of infused saline minus micturition volume); basal pressure (BP=the lowest average bladder pressure recorded during cystometry); micturition pressure (MP=peak bladder pressure during micturition); Bcom=bladder compliance; MF=micturition frequency; and the * indicates <0.05 vs vehicle.

rat bladder strips = test: Spontaneous contractions and basal tone of rat bladder strips; format: cell-based
Experimental: as §1
(§2) In vitro organ bath studies: The in vitro contractility studies were performed as previously described by Zhang X, Kuppam D, Aydin M, Melman A, DiSanto M. “In vitro and in vivo relaxation of corpus cavernosum smooth muscle by the selective myosin II inhibitor, blebbistatin.” J Sex Med 2009; 6:2661-71, Sandhu K S, Chua R G, Zhang X, et al. “Regional heterogeneity in expression of the sphingosine-1-phosphate pathway in the female rat lower urinary tract”; Am J Obstet Gynecol 2009; 200:576-7; Chua R G, Calenda G, Zhang X, et al. “Testosterone regulates erectile function and Vcsal expression in the corpora of rats”; Mol Cell Endocrinol 2009; 303:67-73. Bladder strips were mounted longitudinally and aortic rings horizontally in a 5 ml organ bath—Multi-Myograph Model 810MS (bladder) or Model 610M (aorta) (Danish Myo Technology; Aarhus, Denmark). The myograph was connected in line to a PowerLab 4/30 Data Acquisition System (ADInstruments; Colorado Springs, Colo.) and in turn to a Dual-Core processor Pentium computer for real-time monitoring of physiological force. The smooth muscle strips were equilibrated at least 1 hour in Krebs-Henseleit (Krebs) buffer at 37° C. with continuous bubbling of 95% O2 and 5% CO2 and buffer was changed every 15 minutes (min). Strips were continuously adjusted to resting tension (0.5 g for rat bladder and 1 g for human bladder (Yamamoto M, Harm S C, Grasser W A, Thiede M A. “Parathyroid hormone-related protein in the rat urinary bladder: a smooth muscle relaxant produced locally in response to mechanical stretch.” Proc Natl Acad Sci USA 1992; 89:5326-30. After equilibration, rat detrusor was contracted with 60 mM KCl and the force induced by cumulative concentrations (10-5-10-1 M) of carbachol (CC) or electrical field stimulation (EFS) at varying frequencies of 2-32 Hz, pulse duration 1.5 ms, train 5 s, and 80 V, was normalized to that KCl response. Next, all strips were pre-contracted with 60 mM KCl, or 1 μM CC (rat bladder), or 20 nM endothelin-1 (ET-1) (human bladder) and allowed to reach stable tension and then the relaxant effects of increasing doses of blebbistatin were evaluated. […] Additionally, the influence of blebbistatin (10 μM) on rat detrusor spontaneous activity and basal tone was evaluated.

newborn mouse bladder = conditions: 10 uM; cited from earlier work
[5] = tested on: rat bladder smooth muscle strip (detrusor); test: Pre-incubation with blebbistatin: carbachol-induced rat detrusor contraction; format: cell-based; conditions: for attenuation of carbachol (CC) responsiveness: pre-incubation 10 μM for 30 min, 1 μM CC
Experimental: as §1, §2

[6] = tested on: rat bladder smooth muscle strip (detrusor); test: Pre-incubation with blebbistatin: electrical field stimulation-induced rat bladder contraction; format: cell-based; conditions: pre-incubation 10 μM for 30 min, 32 Hz
Experimental: as §1
In vitro organ bath studies: The in vitro contractility studies were performed as previously described by Zhang X, Kuppam D, Aydin M, Melman A, DiSanto M. “In vitro and in vivo relaxation of corpus cavernosum smooth muscle by the selective myosin II inhibitor, blebbistatin.” J Sex Med 2009; 6:2661-71, Sandhu K S, Chua R G, Zhang X, et al. “Regional heterogeneity in expression of the sphingosine-1-phosphate pathway in the female rat lower urinary tract”; Am J Obstet Gynecol 2009; 200:576-7; Chua R G, Calenda G, Zhang X, et al. “Testosterone regulates erectile function and Vcsal expression in the corpora of rats”; Mol Cell Endocrinol 2009; 303:67-73. […] Next, all strips were pre-contracted with 60 mM KCl, or 1 μM CC (rat bladder), or 20 nM endothelin-1 (ET-1) (human bladder) and allowed to reach stable tension and then the relaxant effects of increasing doses of blebbistatin were evaluated. […]

[7] = biological target: Myosin II ATPase in rabbit striated skeletal muscle; conditions: in vitro, read-out: IC50, inhibition of Myosin II ATPase; cited from earlier work
[8] = biological target: Non-muscle Myosin IIA ATPase (Homo sapiens, UniProt P35579); conditions: read-out: IC50, inhibition of Non-muscle Myosin IIA ATPase; cited from earlier work
[9] = tested on: human bladder smooth muscle strip; test: Relaxation of human bladder (base) strips pre-contracted with 20 nM endothelin-1; format: cell-based; conditions: for relaxation of human bladder pre-contracted with endothelin-1: 20 nM ET-1; for relaxation/block of endothelin-1 induced human bladder contraction (in words): dose-dependent
Experimental: as §1, §2

[10] = tested on: adult mouse bladder smooth muscle; conditions: 10 uM; tissue depolarized using potassium chloride; cited from earlier work
[11] = biological target: Myosin II ATPase in pig cardiac muscle (Sus scrofa, UniProt P79293); conditions: in vitro, read-out: IC50, inhibition of Myosin II ATPase; cited from earlier work
[12] = awake rats, intravesical 250 nmols blebbistatin 30 min, n = 5
[13] = with blebbistatin (10 μM), n = 15 strips from 6 rats

Sequence of Non-muscle Myosin IIA ATPase (P35579 whole entry): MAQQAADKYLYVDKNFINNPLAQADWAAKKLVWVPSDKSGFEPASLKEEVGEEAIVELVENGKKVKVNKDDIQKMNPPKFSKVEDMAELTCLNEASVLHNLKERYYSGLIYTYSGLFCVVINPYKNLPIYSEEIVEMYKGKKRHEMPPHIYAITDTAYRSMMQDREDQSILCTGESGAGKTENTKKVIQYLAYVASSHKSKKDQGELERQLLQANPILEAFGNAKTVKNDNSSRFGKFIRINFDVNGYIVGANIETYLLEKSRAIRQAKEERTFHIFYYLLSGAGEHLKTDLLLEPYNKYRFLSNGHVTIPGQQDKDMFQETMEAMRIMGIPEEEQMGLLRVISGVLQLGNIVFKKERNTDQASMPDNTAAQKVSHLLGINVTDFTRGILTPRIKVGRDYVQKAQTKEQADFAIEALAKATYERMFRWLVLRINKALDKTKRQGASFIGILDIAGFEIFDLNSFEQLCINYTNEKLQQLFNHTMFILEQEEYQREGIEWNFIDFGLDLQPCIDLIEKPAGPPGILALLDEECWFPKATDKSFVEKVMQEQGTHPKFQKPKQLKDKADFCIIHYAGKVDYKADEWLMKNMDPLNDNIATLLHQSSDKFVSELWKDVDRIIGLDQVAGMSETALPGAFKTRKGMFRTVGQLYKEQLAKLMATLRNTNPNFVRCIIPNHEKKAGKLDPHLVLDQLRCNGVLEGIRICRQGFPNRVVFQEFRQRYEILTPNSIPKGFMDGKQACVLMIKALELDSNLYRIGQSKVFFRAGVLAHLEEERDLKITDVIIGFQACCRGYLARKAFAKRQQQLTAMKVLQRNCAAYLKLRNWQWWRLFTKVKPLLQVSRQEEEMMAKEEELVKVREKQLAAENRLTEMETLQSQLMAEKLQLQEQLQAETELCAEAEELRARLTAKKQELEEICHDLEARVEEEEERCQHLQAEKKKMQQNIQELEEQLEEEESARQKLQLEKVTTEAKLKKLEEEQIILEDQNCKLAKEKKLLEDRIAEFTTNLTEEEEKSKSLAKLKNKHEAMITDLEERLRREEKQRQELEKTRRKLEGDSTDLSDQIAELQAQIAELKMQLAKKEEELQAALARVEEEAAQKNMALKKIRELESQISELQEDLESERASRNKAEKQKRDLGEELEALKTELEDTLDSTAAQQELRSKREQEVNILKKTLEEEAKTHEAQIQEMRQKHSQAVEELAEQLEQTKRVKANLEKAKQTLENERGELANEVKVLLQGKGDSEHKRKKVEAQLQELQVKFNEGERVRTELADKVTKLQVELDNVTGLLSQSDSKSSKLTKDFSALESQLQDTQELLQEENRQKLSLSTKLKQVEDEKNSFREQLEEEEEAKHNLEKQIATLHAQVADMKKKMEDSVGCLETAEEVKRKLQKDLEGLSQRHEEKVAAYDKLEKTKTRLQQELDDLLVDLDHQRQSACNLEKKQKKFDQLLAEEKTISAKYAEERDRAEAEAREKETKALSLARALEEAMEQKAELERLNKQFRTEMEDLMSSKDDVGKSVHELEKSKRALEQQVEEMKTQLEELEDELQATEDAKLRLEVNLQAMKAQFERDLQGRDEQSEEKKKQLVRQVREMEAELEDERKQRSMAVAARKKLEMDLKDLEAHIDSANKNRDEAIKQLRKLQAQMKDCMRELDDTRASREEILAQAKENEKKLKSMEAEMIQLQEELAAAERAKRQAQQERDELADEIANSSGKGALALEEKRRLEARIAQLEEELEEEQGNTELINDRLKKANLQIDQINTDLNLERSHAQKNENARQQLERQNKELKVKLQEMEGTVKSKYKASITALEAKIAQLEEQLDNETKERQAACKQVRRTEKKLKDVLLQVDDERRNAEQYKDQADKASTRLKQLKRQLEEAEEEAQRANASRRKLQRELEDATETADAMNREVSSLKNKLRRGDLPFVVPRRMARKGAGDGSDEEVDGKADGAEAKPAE
Sequence of Non-muscle Myosin IIA ATPase (P60660 whole entry partner): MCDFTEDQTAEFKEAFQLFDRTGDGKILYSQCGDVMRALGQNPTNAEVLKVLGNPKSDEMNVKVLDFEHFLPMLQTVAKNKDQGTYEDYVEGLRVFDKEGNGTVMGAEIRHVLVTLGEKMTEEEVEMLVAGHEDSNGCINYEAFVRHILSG
Sequence of Non-muscle Myosin IIA ATPase (O14950 whole entry partner): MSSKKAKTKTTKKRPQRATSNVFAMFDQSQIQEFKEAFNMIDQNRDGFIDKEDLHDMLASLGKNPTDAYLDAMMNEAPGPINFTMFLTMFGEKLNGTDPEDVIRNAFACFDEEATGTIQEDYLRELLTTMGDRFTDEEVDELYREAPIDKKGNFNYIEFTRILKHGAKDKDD
Sequence of Porcine Cardiac Muscle Myosin II ATPase (P79293 whole entry): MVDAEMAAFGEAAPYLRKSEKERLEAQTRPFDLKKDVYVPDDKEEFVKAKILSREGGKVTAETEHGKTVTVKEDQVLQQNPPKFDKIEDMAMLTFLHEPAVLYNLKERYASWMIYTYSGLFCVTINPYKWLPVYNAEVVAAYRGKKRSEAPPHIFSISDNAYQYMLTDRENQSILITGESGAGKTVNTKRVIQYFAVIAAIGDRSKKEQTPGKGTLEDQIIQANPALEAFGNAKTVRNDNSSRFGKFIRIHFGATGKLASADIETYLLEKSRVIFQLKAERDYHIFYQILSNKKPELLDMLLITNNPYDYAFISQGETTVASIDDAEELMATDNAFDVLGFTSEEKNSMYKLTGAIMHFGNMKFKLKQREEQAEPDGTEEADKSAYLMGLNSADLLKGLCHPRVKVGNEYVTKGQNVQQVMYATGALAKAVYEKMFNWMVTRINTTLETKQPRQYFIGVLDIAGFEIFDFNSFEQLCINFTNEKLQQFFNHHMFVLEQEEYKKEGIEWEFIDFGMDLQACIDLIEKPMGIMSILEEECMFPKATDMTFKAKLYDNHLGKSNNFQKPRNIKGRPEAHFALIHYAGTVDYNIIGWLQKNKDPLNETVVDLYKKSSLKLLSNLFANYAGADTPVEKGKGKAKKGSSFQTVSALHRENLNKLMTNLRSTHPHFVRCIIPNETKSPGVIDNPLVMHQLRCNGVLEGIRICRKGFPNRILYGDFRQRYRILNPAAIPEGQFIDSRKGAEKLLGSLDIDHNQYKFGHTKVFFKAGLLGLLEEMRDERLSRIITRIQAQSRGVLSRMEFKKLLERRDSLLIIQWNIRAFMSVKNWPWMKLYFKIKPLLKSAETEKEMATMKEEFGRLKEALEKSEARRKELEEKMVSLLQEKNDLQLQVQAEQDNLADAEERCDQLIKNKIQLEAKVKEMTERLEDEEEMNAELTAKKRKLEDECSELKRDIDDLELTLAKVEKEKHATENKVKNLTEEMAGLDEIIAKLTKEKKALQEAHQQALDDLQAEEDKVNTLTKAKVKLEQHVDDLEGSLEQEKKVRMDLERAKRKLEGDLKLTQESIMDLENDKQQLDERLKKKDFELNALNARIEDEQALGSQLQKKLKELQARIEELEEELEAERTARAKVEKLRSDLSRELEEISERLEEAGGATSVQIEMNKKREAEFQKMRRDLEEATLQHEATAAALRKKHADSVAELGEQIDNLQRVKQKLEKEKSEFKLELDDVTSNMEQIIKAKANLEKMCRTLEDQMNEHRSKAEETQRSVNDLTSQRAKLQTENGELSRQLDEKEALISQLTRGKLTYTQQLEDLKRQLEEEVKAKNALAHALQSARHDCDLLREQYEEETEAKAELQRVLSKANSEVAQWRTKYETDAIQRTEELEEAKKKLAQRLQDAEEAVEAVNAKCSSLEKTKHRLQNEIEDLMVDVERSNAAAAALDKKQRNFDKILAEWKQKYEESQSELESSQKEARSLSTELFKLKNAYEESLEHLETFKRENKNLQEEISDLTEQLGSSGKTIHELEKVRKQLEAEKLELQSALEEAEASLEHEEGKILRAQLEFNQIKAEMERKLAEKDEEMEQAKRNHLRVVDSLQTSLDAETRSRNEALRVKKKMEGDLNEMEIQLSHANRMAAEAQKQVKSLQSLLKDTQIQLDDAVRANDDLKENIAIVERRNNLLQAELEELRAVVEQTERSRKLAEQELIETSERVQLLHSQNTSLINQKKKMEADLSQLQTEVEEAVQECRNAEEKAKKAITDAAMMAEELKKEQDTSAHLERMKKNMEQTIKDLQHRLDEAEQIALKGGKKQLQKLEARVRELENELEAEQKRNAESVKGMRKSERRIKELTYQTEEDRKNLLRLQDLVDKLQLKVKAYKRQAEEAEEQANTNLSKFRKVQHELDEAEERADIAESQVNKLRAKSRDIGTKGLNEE
Sequence of Myosin II ATPase in pig cardiac muscle (P79293 whole entry): as above

## Cc1ccc2c(c1)C(=O)C1(O)CCN(c3ccccc3)C1=N2 (single isomer, unassigned; (+)) [(+)-blebbistatin]
[1]
  bladder relaxation in vitro, enantiomer compared with racemic blebbistatin mixture: did not induce significant bladder relaxation

## Cc1ccc2c(c1)C(=O)[C@]1(O)CCN(c3ccccc3)C1=N2 [(−)-blebbistatin, (−)-3aS-hydroxy-6-methyl-1-phenyl-1,2,3,3a-tetrahydro-4H-pyrrolo[2,3b] quinolin-4-one]
[1]
  bladder relaxation in vitro, enantiomer compared with racemic blebbistatin mixture: equipotent
[2]
  inhibition of Non-muscle Myosin ATPases: inhibited
[3]
  inhibition of cardiac muscle Myosin ATPase: inhibited

## CN1[C@@H]2CC[C@H]1C[C@@H](OC(=O)C(CO)c1ccccc1)C2 (stereo partly shown) [atropine]
[1]
  time needed to relax the muscle strip in vitro in a tissue bath: 3 to 5 min

## Cc1ccc2c(c1)C(=O)C1(O)CCN(c3ccccc3)C1=N2 (racemic) [blebbistatin, 3a-hydroxy-6-methyl-1-phenyl-1,2,3,3a-tetrahydro-4H-pyrrolo[2,3b]-quinolin-4-one]
[1]
  time needed to relax the muscle strip in vitro in a tissue bath: 30 to 60 min
[1]; 10 uM, strip pre-contracted with 1 uM carbacol
  baseline and peak phasic force of contraction (FIG. 3): significant decrease
[1]; 1 μm
  relaxation of KCl and CC evoked detrusor contraction: 20-30%
[1]; 5 μm
  relaxation of KCl and CC evoked detrusor contraction: 80-100%
[1]; dose-dependent, 1-10 μM cumulative
  relaxation of KCl and carbachol induced rat detrusor contraction (in words): completely relaxed
[4]
  IC50: 79.6 µM
Bladder of awake rat; [12]
  BC (bladder capacity): 1.4 +/− 0.16 * ml
  BP (basal pressure): 6.9 +/− 1.8 cm H20
  MF (micturition frequency): 7.2 +/− 1.3 *
  MP (micturition pressure): 42 +/− 13 cmH20
  MV (micturition volume): 1.4 +/− 10 * ml
  RV (residual volume): 0.03 ± 0.01 mL
Bladder of awake rat; rat with overactive bladder (OAB), blebbistatin kept in bladder about 5 min
  decline of voiding frequency: over 50%
Rat bladder strips; 10 am (so in the source)
  decrease in the amplitude of spontaneous smooth muscle contractions: ~60%
Rat bladder strips; [13]
  Amplitude of spontaneous contractions: 118 ± 19.33 mg and 120 ± 19 mg
  Basal Tone: 310 ± 16 mg
  Frequency of spontaneous contractions: 5.5 +/− 1.2 cycles/min
Newborn mouse bladder
  inhibition of bladder contraction of a newborn mouse: did inhibit
[5]
  attenuation of carbachol (CC) responsiveness: about 65%
[5]; listed as BLEB
  attenuation of carbachol (CC) responsiveness: about 65%
[5]; listed as racemic blebbistatin
  attenuation of carbachol (CC) responsiveness: ~65%
[5]; pre-incubation 10 μm for 30 min
  lowering of basal tone: around 300 mg
[6]
  inhibition of EFS-induced bladder contraction: about 50%
[6]; listed as racemic blebbistatin
  inhibition of EFS-induced bladder contraction: 50%
[7]
  IC50: 0.5 µM
[8]
  IC50: 5.1 µM
[9]; 1 μM
  relaxation of human bladder pre-contracted with endothelin-1: 60%
[9]; 3 am (so in the source)
  relaxation of human bladder pre-contracted with endothelin-1: ~100%
[9]
  relaxation/block of endothelin-1 induced human bladder contraction (in words): completely blocked
[9]; listed as Racemic blebbistatin
  relaxation/block of endothelin-1 induced human bladder contraction (in words): completely relaxed
[10]
  block of adult mouse bladder smooth muscle contraction: did not block
[11]
  IC50: 1.2 µM
